Results: paper PMC10648349, “Aromatic Diboronic Acids as Effective KPC/AmpC Inhibitors” (Molecules, 2023)
Converted amounts (≈) assume the structure as drawn.

How the values were obtained:
[1] = tested on: P. aeruginosa MUW 700 cAmpC-positive; assay: checkerboard microdilution, antibiotic plus tested agent; format: cell-based, Pseudomonas aeruginosa
Outline: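 β-lactam 1–64 mg/L × agent/PBA 4–16 mg/L checkerboard; meropenem vs carbapenemase producers, ceftazidime vs AmpC producer; imipenem, ertapenem added for selected agents. Readout: combination MICs, FICI (average and lowest); off-scale MICs taken as next doubling.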

[2] = tested on: P. aeruginosa MUW 700 AmpC(+); assay: MIC of tested agent alone, microdilution; format: cell-based; conditions: Pseudomonas aeruginosa; read-out: MIC of agent alone
Outline: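 Broth microdilution checkerboard: β-lactam in seven two-fold dilutions (1–64 mg/L) against tested agent or PBA in three two-fold dilutions (4–16 mg/L). Antibiotic MICs were read at each agent level, with agent-alone MICs run in parallel by microdilution.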

B. subtilis ATCC 6633 = assay: direct antimicrobial activity (disc-diffusion); format: cell-based; conditions: Bacillus subtilis, ATCC6633; 0.4 mg per disc, 9 mm disc (linezolid 0.03 mg, 6 mm disc); - no zone; read-out: Diameter of inhibition zone
Outline: (§1)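 First, discs bearing 0.4 mg of compound in DMSO were tested for growth inhibition. Next, MIC was determined, followed by MBC for bacteria or MFC for yeasts, all per EUCAST and CLSI.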

C. krusei ATCC 6258 = assay: antifungal activity (disc-diffusion, MIC, MFC); format: cell-based, Candida krusei; conditions: Pichia kudriavzevii, ATCC6258; fluconazole by Etest
Outline: as §1

[3] = MTT-based viability assay; format: cell-based; conditions: human, MRC-5 human fibroblasts, 72 h, read-out: Viability of MRC-5 cells (% of viable cells ± SD)
Outline: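 Percent viable cells relative to control, measured in triplicate by MTT read-out at 570 nm. Cells: MRC-5 human fibroblasts cultured at 37 °C, 5% CO2 in MEME plus 10% FBS.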

E. faecium ATCC 6057 = assay: direct antimicrobial activity (disc-diffusion, MIC, MBC); format: cell-based; conditions: Enterococcus faecium, ATCC6057
Outline: as §1

S. aureus ATCC 6538P = assay: as above; format: cell-based; conditions: Staphylococcus aureus, ATCC6538P
Outline: as §1

E. faecalis ATCC 29212 = assay: as above; format: cell-based; conditions: Enterococcus faecalis, ATCC29212
Outline: as §1

[4] = tested on: S. epidermidis ATCC 12228; assay: as above; format: cell-based; conditions: Staphylococcus epidermidis, ATCC12228; for zone of inhibition at 0.4 mg/disc: 0.4 mg per disc, 9 mm disc (linezolid 0.03 mg, 6 mm disc), - no zone, read-out: Diameter of inhibition zone
Outline: as §1

[5] = tested on: S. aureus ATCC 43300 MRSA; assay: as above; format: cell-based; conditions: Staphylococcus aureus
Outline: as §1

[6] = tested on: K. pneumoniae ATCC BAA 1705 KPC-2-positive; assay: combination disc test CDT-KPC; format: cell-based; conditions: Klebsiella pneumoniae, BAA1705, read-out: Diameter of inhibition zone, MEM-10 disc with agent; for zone of inhibition at 300 µg/disc: agent 0.3 mg per disc
C. tropicalis ATCC 750 = assay: antifungal activity (disc-diffusion, MIC, MFC); format: cell-based; conditions: Candida tropicalis, ATCC750; fluconazole by Etest
Outline: as §1

C. tropicalis IBA 171 = assay: antifungal activity (disc-diffusion, MIC, MFC); format: cell-based; conditions: Candida tropicalis, IBA171; fluconazole by Etest
Outline: as §1

C. albicans ATCC 90028 = assay: antifungal activity (disc-diffusion, MIC, MFC); format: cell-based; conditions: Candida albicans, ATCC90028; fluconazole by Etest
Outline: as §1

S. cerevisiae ATCC 9763 = assay: antifungal activity (disc-diffusion, MIC, MFC); format: cell-based; conditions: Saccharomyces cerevisiae, ATCC9763; for MIC: fluconazole by Etest
Outline: as §1

[7] = tested on: E. coli 77 CMY-2-positive; assay: combination disc test CDT-AmpC; format: cell-based; conditions: Escherichia coli, read-out: Diameter of inhibition zone, CAZ-30 disc with agent; for zone of inhibition at 300 µg/disc: agent 0.3 mg per disc; for zone of inhibition at 100 µg/disc: agent 0.1 mg per disc
[8] = tested on: C. parapsilosis ATCC 22019; assay: antifungal activity (disc-diffusion, MIC, MFC); format: cell-based, Candida parapsilosis; conditions: Lodderomyces parapsilosis, ATCC22019; for MIC: fluconazole by Etest
Outline: as §1

[9] = tested on: K. pneumoniae ATCC 700603 ESBL-positive; assay: combination disc test CDT-ESBL; format: cell-based; conditions: Klebsiella pneumoniae, ATCC700603, read-out: Diameter of inhibition zone, CAZ-30 disc with agent; for zone of inhibition at 300 µg/disc: agent 0.3 mg per disc
[10] = 0.4 mg per disc, 9 mm disc (fluconazole 0.025 mg, 6 mm disc), - no zone, read-out: Diameter of inhibition zone
[11] = 0.4 mg per disc, 9 mm disc (linezolid 0.03 mg, 6 mm disc), - no zone, read-out: Diameter of inhibition zone

SMILES | Average FICI with ceftazidime [1] | Interpretation of the average FICI with ceftazidime [1] | Interpretation of the lowest FICI with ceftazidime [1] | The lowest FICI with ceftazidime [1] | MIC [2] [µg/mL] | zone of inhibition at 0.4 mg/disc (B. subtilis ATCC 6633) [mm] | MIC (C. krusei ATCC 6258) [µg/mL] | MIC (E. faecium ATCC 6057) [µg/mL] | MIC (S. aureus ATCC 6538P) [µg/mL] | MIC (E. faecalis ATCC 29212) [µg/mL] | MIC [4] [µg/mL] | zone of inhibition at 0.4 mg/disc [4] [mm] | MIC [5] [µg/mL] | zone of inhibition at 300 µg/disc [6] [mm] | MIC (C. tropicalis ATCC 750) [µg/mL] | MIC (C. tropicalis IBA 171) [µg/mL] | MIC (C. albicans ATCC 90028) [µg/mL] | MIC (S. cerevisiae ATCC 9763) [µg/mL] | MIC [8] [µg/mL] | zone of inhibition at 300 µg/disc [9] [mm] | further results
OB(O)c1ccc(B(O)O)cc1 [1a] | 0.16 | S (FICI ≤ 0.5, synergy) | S (FICI ≤ 0.5, synergy) | 0.08 | > 400 | 17 | > 400 | 400 (≈ 2410 µM) | 200 (≈ 1210 µM) | 200 (≈ 1210 µM) | 400 (≈ 2410 µM) | 14 | 400 (≈ 2410 µM) | 19 | > 400 | > 400 | > 400 | 400 (≈ 2410 µM) | > 400 | 17 | viability at 72 h, 16 mg/L ([3]; 16 mg/L): 113 ± 12.5%; viability at 72 h, 32 mg/L ([3]; 32 mg/L): 103 ± 11.8%; viability at 72 h, 64 mg/L ([3]; 64 mg/L): 89.9 ± 11.4%; zone of inhibition at 300 µg/disc [7]: 21 mm
OB(O)c1cc(F)c(B(O)O)c(F)c1 [1d] | 0.43 | S (FICI ≤ 0.5, synergy) | S (FICI ≤ 0.5, synergy) | 0.27 | > 400 | 15 | 200 (≈ 991 µM) | > 400 | 25 (≈ 124 µM) | > 400 | 25 (≈ 124 µM) | 21 | 200 (≈ 991 µM) |  | 400 (≈ 1980 µM) | 200 (≈ 991 µM) | 200 (≈ 991 µM) | 200 (≈ 991 µM) | 200 (≈ 991 µM) |  | viability at 72 h, 12.5 mg/L [3]: 111.6 ± 1.1%; viability at 72 h, 25 mg/L [3]: 104 ± 8.9%; viability at 72 h, 50 mg/L [3]: 83.3 ± 1.2%; zone of inhibition at 100 µg/disc ([6]; agent 0.1 mg per disc): 12 mm; zone of inhibition at 0.4 mg/disc (S. cerevisiae ATCC 9763; [10]): 13 mm; zone of inhibition at 100 µg/disc [7]: 20 mm; zone of inhibition at 0.4 mg/disc [8, 10]: 14 mm; zone of inhibition at 100 µg/disc ([9]; agent 0.1 mg per disc): 14 mm
OB(O)c1cc(F)cc(B(O)O)c1 [2b] | 0.35 | S (FICI ≤ 0.5, synergy) | S (FICI ≤ 0.5, synergy) | 0.26 | > 400 | 17 | > 400 | 400 (≈ 2180 µM) | 100 (≈ 544 µM) | 400 (≈ 2180 µM) | 50 (≈ 272 µM) | 19 | 400 (≈ 2180 µM) | 19 | > 400 | > 400 | > 400 | > 400 | > 400 | 16 | viability at 72 h, 12.5 mg/L [3]: 108 ± 1.1%; viability at 72 h, 25 mg/L [3]: 87.9 ± 1.7%; viability at 72 h, 50 mg/L [3]: 73.8 ± 1.9%; zone of inhibition at 0.4 mg/disc (E. faecium ATCC 6057; [11]): 14 mm; zone of inhibition at 0.4 mg/disc (S. aureus ATCC 6538P; [11]): 14 mm; zone of inhibition at 0.4 mg/disc [5, 11]: 15 mm; zone of inhibition at 100 µg/disc [7]: 21 mm
OB(O)c1ccsc1B(O)O [5a, thiophene-2,3-diboronic acid] | 0.30 | S (FICI ≤ 0.5, synergy) | S (FICI ≤ 0.5, synergy) | 0.15 | > 400 | 15 | > 400 | > 400 | 100 (≈ 582 µM) | 100 (≈ 582 µM) | 400 (≈ 2330 µM) | 13 | 400 (≈ 2330 µM) | 15 | > 400 | > 400 | 400 (≈ 2330 µM) | > 400 | > 400 | 16 | viability at 72 h, 12.5 mg/L [3]: 88.6 ± 9.2%; viability at 72 h, 25 mg/L [3]: 87.1 ± 1.6%; viability at 72 h, 50 mg/L [3]: 79.2 ± 5.1%; zone of inhibition at 300 µg/disc [7]: 20 mm
